# Measured values taken from patent US8962657B2, “Aryl derivatives and uses thereof” (Jacobus Pharmaceutical Company, Inc., priority 2012, dated 2015).
# pIC50: −log10 of the molar value. Like-named read-outs stand apart in the source and are kept apart here. Marks after values point to notes of the source that are not given here.
# Experiments:
# [1] = system: P. falciparum strain W2 (resistant to chloroquine and pyrimethamine); experiment: [3H]-hypoxanthine growth inhibition assay, P. falciparum W2; format: cell-based; conditions: Plasmodium falciparum, W2, read-out: W2 IC50
# Protocol: (§1) The potential for antimalarial activity against Plasmodium falciparum was determined by measuring the incorporation of tritiated hypoxanthine into parasitized red blood cells.
# (§2) Stock solutions of the test compounds and the reference drug chloroquine (CQ) (Sigma Chemicals C-6628, Lot #059H0919) were prepared in silanized glass vials with AquaSil™ (Pierce, USA) to minimize absorption of the compounds to glassware. All test compounds were dissolved in DMSO (Sigma Cat No. # D8418) to 1 mM concentration, whereas CQ was dissolved in 50% methanol at a concentration of 1.6 mg/ml (base). Stock solutions were stored at −20° C.
# (§3) The P. falciparum laboratory adapted strains utilized in this project (Table 1) were in vitro cultured and routinely maintained in RPMI-1640-LPLF complete medium, which contained low concentrations of para-amino benzoic acid (0.0005 mg/L) and folic acid (0.01 mg/L).
# (§4) The low concentration of folic acid in RPMI-1640-LPLF prevents inhibition of the compound if its activity targets the parasite's folate metabolic pathway. Parasites were cultured in human red blood cells (RBCs) in vitro at 37° C. in special gas mixture (5% O2, 5% CO2 and 90% N2) as described Trager and Jensen (1979 Science 193:673-675).
# (§5) Base cultivation medium consisted of 10.4 g/L RPMI-1640-LPLF powder (Gibco BRL), 5.97 g/L HEPES buffer (MP Biomedicals, USA), 2.0 g/L D-glucose (BDH chemicals, Australia), 0.05 g/L hypoxanthine (Sigma, USA) and 40 mg/L gentamycin (Pfizer, Australia). The pH of the medium was adjusted to 6.9 and the solution was filtered using 0.2 μm pore size (AcroCap, Gelman Science, USA). […] For [^3H]-hypoxanthine inhibition growth assay, RPMI-1640-LPLF complete medium which lacked [^3H]-hypoxanthine ([^3H]-RPMI-1640-LPLF) was used to prevent uptake of hypoxanthine by parasites, as radioactive hypoxanthine uptake is measured as a surrogate marker of growth. […]
# (§6) Red blood cells (RBC) were required for P. falciparum parasites to proliferate in vitro. […] Following the final wash, the haematocrit was measured as the percent of RBC to total culture volume. […]
# [2] = system: P. falciparum strain D6 (sensitive to chloroquine and pyrimethamine); experiment: [3H]-hypoxanthine growth inhibition assay, P. falciparum D6; format: cell-based; conditions: Plasmodium falciparum, D6, read-out: D6 IC50
# Protocol: as §1, §2, §3, §4, §5, §6
# [3] = system: Plasmodium berghei (KBG-173 strain); experiment: Plasmodium berghei assay in vivo (modified Thompson Test), survival of infected mice; set-up: species or system Charles River CD-1 mice; conditions: for Average Days Survival: 31 day experiment
# Protocol: In vivo antimalarial activity was tested in male or female Charles River CD-1 mice that were 4-5 weeks old and weighed 20-25 g They were housed in groups of 3 or 4 in standard plastic cages with wire tops, Bed-o-cob® bedding, 12 hr/day of light, and maintained at 75° F. They were fed a standard Ralston Purina mouse chow and the cages and bottles were changed twice a week. Test compounds were ground in a mortar and pestle and diluted with enough vehicle to give a volume of 10 mL/kg of mouse weight. The oral doses were prepared in 0.5% hydroxyethylcellulose (Union Carbide Corp. WP 4400)/0.1% Tween-80 (Fisher Scientific T164-500). The amount of drug was calculated on the free base weight. The mice were infected intraperitoneally on day 0 with 5×10^4 erythrocytes parasitized with Plasmodium berghei (KBG-173 strain) from a donor mouse having a parasitemia between 5-10%. On days 3, 4 and 5 the test compounds were administered bid, spaced 6 hr apart, by oral gavage to the mice. Activity was measured by survival, with full activity defined as all animals living at day 31. Partial activity is defined as days of increased survival versus the infected non-treated controls. This in vivo model is a modification of the Thompson Test. For further description see Ager, A. L, Jr. Rodent Malaria Models. In Handbook of Experimental Pharmacology: Antimalarial Drugs. 1. 68/1; Peters, W., Richards, W. H. G., Eds.: Springer-Verlag: Berlin, 1984, pp. 231-33.
# [4] = 4 mg/kg/day, oral bid on days 3, 4 and 5
# [5] = 16 mg/kg/day, oral bid on days 3, 4 and 5
# [6] = 64 mg/kg/day, oral bid on days 3, 4 and 5
# [7] = 128 mg/kg/day, oral bid on days 3, 4 and 5
# [8] = Plasmodium berghei, po, 744 h, read-out: Number of mice alive at day 31
# [9] = 8 mg/kg/day, oral bid on days 3, 4 and 5
# [10] = 32 mg/kg/day, oral bid on days 3, 4 and 5
# [11] = Plasmodium berghei, 744 h, 4 mg/kg/day, oral bid on days 3, 4 and 5, read-out: Number of mice alive at day 31 (converted)
# [12] = Plasmodium berghei, 744 h, 8 mg/kg/day, oral bid on days 3, 4 and 5, read-out: Number of mice alive at day 31 (converted)
# [13] = Plasmodium berghei, 744 h, 16 mg/kg/day, oral bid on days 3, 4 and 5, read-out: Number of mice alive at day 31 (converted)
# [14] = Plasmodium berghei, 744 h, 32 mg/kg/day, oral bid on days 3, 4 and 5, read-out: Number of mice alive at day 31 (converted)
# [15] = Plasmodium berghei, 744 h, 64 mg/kg/day, oral bid on days 3, 4 and 5, read-out: Number of mice alive at day 31 (converted)
# [16] = 2 mg/kg/day, oral bid on days 3, 4 and 5
# [17] = Plasmodium berghei, 744 h, 2 mg/kg/day, oral bid on days 3, 4 and 5, read-out: Number of mice alive at day 31 (converted)
SMILES,"Average Days Survival [3, 4]","Average Days Survival [3, 5]","Average Days Survival [3, 6]","Average Days Survival [3, 9]","Average Days Survival [3, 10]","responders at 4 mg/kg [3, 11]","responders at 8 mg/kg [3, 12]","responders at 16 mg/kg [3, 13]","responders at 32 mg/kg [3, 14]","Average Days Survival [3, 16]","responders at 2 mg/kg [3, 17]",other results
"CCN(CC)CCCC(C)Nc1ccnc2cc(Cl)ccc12 (stereo not shown) [Chloroquine, chloroquine, reference compound]",10.3 days,>18.8 days,>18.6 days,,,,,,,,,"pIC50 [1]: 6.88; pIC50 [2]: 7.92; Average Days Survival [3, 7]: >21.3 days; responders at 4 mg/kg [3, 8]: 0%; responders at 16 mg/kg [3, 8]: 14.3%; responders at 64 mg/kg [3, 8]: 28.6%; responders at 128 mg/kg [3, 8]: 57.1%"
"CC(C)(C)NCc1cc(C(C)(C)C)cc(-c2ccc(OC(F)(F)F)cc2)c1O [Example 5, 5-(tert-Butyl)-3-((tert-butylamino)methyl)-4′-(trifluoromethoxy)-[1,1′-biphenyl]-2-ol]",>19.3 days,>31* Days,>31* Days,>31* Days,>31* Days,42.9%,100%,100%,100%,,,"Average Days Survival [3, 7]: >31* Days; Average Days Survival ([3]; 256 mg/kg/day, oral bid on days 3, 4 and 5): >31* Days; responders at 64 mg/kg [3, 15]: 100%; responders at 128 mg/kg ([3]; Plasmodium berghei, 744 h, 128 mg/kg/day, oral bid on days 3, 4 and 5, read-out: Number of mice alive at day 31 (converted)): 100%; responders at 256 mg/kg ([3]; Plasmodium berghei, 744 h, 256 mg/kg/day, oral bid on days 3, 4 and 5, read-out: Number of mice alive at day 31 (converted)): 100%"
"CC(C)(C)NCc1cc(C(C)(C)C)cc(-c2cc(C(F)(F)F)cc(C(F)(F)F)c2)c1O.Cl [Example 16, 5-(tert-Butyl)-3-((tert-butylamino)methyl)-3′,5′-bis(trifluoromethyl)-[1,1′-biphenyl]-2-ol hydrochloride]",>17 days,>31* Days,,>31* Days,>31* Days,85.7%,100%,100%,100%,>20.5 days,42.9%,
"CC1(NCc2cc(C(C)(C)C)cc(-c3ccc(OC(F)(F)F)cc3)c2O)CCC1.Cl [Example 18, 5-(tert-Butyl)-3-(((1-methylcyclobutyl)amino)methyl)-4′-(trifluoromethoxy)-[1,1′-biphenyl]-2-ol hydrochloride]",15.7 days,>31* Days,,>31* Days,>31* Days,0%,100%,100%,100%,,,
"CC(C)(C)NCc1cc(C(C)(C)C)cc(-c2ccc(Cl)c(Cl)c2)c1O.Cl [Example 19, 5-(tert-Butyl)-3-((tert-butylamino)methyl)-3′,4′-dichloro-[1,1′-biphenyl]-2-ol hydrochloride]",>31* Days,>31* Days,,>31* Days,,100%,100%,100%,,>7 days,85.7%,"Average Days Survival ([3]; 1 mg/kg/day, oral bid on days 3, 4 and 5): >19.6 days; responders at 1 mg/kg ([3]; Plasmodium berghei, 744 h, 1 mg/kg/day, oral bid on days 3, 4 and 5, read-out: Number of mice alive at day 31 (converted)): 28.6%"
"CC(C)(C)NCc1cc(C(C)(C)C)cc(-c2ccc(C(F)(F)F)cc2)c1O.Cl [Example 22, 5-(tert-Butyl)-3-((tert-butylamino)methyl)-4′-(trifluoromethyl)-[1,1′-biphenyl]-2-ol hydrochloride]",>24 days,>31* Days,>31* Days,>31* Days,>31* Days,85.7%,100%,100%,100%,>16.8 days,28.6%,"responders at 64 mg/kg [3, 15]: 100%"
"CC(C)(C)NCc1cc(C(C)(C)C)cc(-c2ccc(F)c(Cl)c2)c1O.Cl [Example 24, 5-(tert-Butyl)-3-((tert-butylamino)methyl)-3′-chloro-4′-fluoro-[1,1′-biphenyl]-2-ol hydrochloride]",>14.5 days,>31* Days,,>16 days,>31* Days,71.4%,85.7%,100%,100%,>17 days,42.9%,
"CC(C)(C)NCc1cc(-c2ccc(Cl)cc2)cc(-c2ccc(Cl)c(Cl)c2)c1O.Cl [Example 39, 5′-((tert-Butylamino)methyl)-3″,4,4″-trichloro-[1,1′:3′,1″-terphenyl]-4′-ol hydrochloride]",>31* Days,>31* Days,,>31* Days,,100%,100%,100%,,>23 days,14.3%,
